# Organism: Rattus norvegicus
# Test: Open TG-GATES - Regimen: Daily Repeat
# Assay type: toxicity, organism-based, Sprague-Dawley
# Set-up: regimen Daily Repeat, gender Male, age 6 weeks
# Settings: in vivo, po, 100 mg/kg, route gavage, dose level Low; for APTT / Bas / Eos / Fbg / Hb / Ht / Lym / MCH / MCHC / MCV / Mono / Neu / PT / Plat / RBC / Ret / WBC: tissue Blood; for KIDNEY_L / KIDNEY_R / KIDNEY_TOTAL: tissue Kidney; for LIVER: tissue Liver; for A/G / ALP / ALT / AST / BUN / CRE / Ca / Cl / DBIL / GLC / IP / K / LDH / Na / PL / RALB / TBIL / TC / TG / TP / gamma-GTP: tissue Plasma
smiles,measurement,setting,value
CCCCNC(=O)NS(=O)(=O)c1ccc(C)cc1 [TOLBUTAMIDE],TERMINAL_BW,"72 h, time 3 day",233.9 g
same,APTT,"72 h, time 3 day",20.4 s
same,Bas,"72 h, time 3 day",0.2%
same,Eos,"72 h, time 3 day",1.2%
same,Fbg,"72 h, time 3 day",283.2 mg/dL
same,Hb,"72 h, time 3 day",13.7 g/dL
same,Ht,"72 h, time 3 day",42%
same,Lym,"72 h, time 3 day",80.2%
same,MCH,"72 h, time 3 day",20.2 pg
same,MCHC,"72 h, time 3 day",32.7%
same,MCV,"72 h, time 3 day",61.9 fL
same,Mono,"72 h, time 3 day",2.2%
same,Neu,"72 h, time 3 day",15.8%
same,PT,"72 h, time 3 day",13.2 s
same,Plat,"72 h, time 3 day",118.8 x10_4/uL
same,RBC,"72 h, time 3 day",680.4 x10_4/ul
same,Ret,"72 h, time 3 day",5.8%
same,WBC,"72 h, time 3 day",98.1 x10_2/uL
same,KIDNEY_L,"72 h, time 3 day",1 g
same,KIDNEY_R,"72 h, time 3 day",1 g
same,KIDNEY_TOTAL,"72 h, time 3 day",2 g
same,LIVER,"72 h, time 3 day",11.3 g
same,A/G,"72 h, time 3 day",0.9
same,ALP,"72 h, time 3 day",1905.6 IU/L
same,ALT,"72 h, time 3 day",46.2 IU/L
same,AST,"72 h, time 3 day",73.8 IU/L
same,BUN,"72 h, time 3 day",15 mg/dL
same,CRE,"72 h, time 3 day",0.2 mg/dL
same,Ca,"72 h, time 3 day",11.1 mg/dL
same,Cl,"72 h, time 3 day",104.6 meq/L
same,DBIL,"72 h, time 3 day",0.01 mg/dL
same,GLC,"72 h, time 3 day",180.4 mg/dL
same,IP,"72 h, time 3 day",8.4 mg/dL
same,K,"72 h, time 3 day",3.9 meq/L
same,LDH,"72 h, time 3 day",68.8 IU/L
same,Na,"72 h, time 3 day",142.6 meq/L
same,PL,"72 h, time 3 day",156.4 mg/dL
same,RALB,"72 h, time 3 day",2.6 g/dL
same,TBIL,"72 h, time 3 day",0.058 mg/dL
same,TC,"72 h, time 3 day",77 mg/dL
same,TG,"72 h, time 3 day",99.4 mg/dL
same,TP,"72 h, time 3 day",5.5 g/dL
same,gamma-GTP,"72 h, time 3 day",1 IU/L
same,TERMINAL_BW,"[…], time 7 day",273.5 g
same,TERMINAL_BW,"[…], time 14 day",313.3 g
same,TERMINAL_BW,"[…], time 28 day",400.3 g
same,APTT,"[…], time 7 day",16.9 s
same,Bas,"[…], time 7 day",0%
same,Eos,"[…], time 7 day",1%
same,Fbg,"[…], time 7 day",303.2 mg/dL
same,Hb,"[…], time 7 day",13.6 g/dL
same,Ht,"[…], time 7 day",40.9%
same,Lym,"[…], time 7 day",74.4%
same,MCH,"[…], time 7 day",20.4 pg
same,MCHC,"[…], time 7 day",33.2%
same,MCV,"[…], time 7 day",61.4 fL
same,Mono,"[…], time 7 day",2%
same,Neu,"[…], time 7 day",21.8%
same,PT,"[…], time 7 day",12.5 s
same,Plat,"[…], time 7 day",130 x10_4/uL
same,RBC,"[…], time 7 day",667 x10_4/ul
same,Ret,"[…], time 7 day",5.4%
same,WBC,"[…], time 7 day",123.8 x10_2/uL
same,APTT,"[…], time 14 day",18.6 s
same,Bas,"[…], time 14 day",0.2%
same,Eos,"[…], time 14 day",0.8%
same,Fbg,"[…], time 14 day",284.2 mg/dL
same,Hb,"[…], time 14 day",14.2 g/dL
same,Ht,"[…], time 14 day",43.5%
same,Lym,"[…], time 14 day",81%
same,MCH,"[…], time 14 day",19.5 pg
same,MCHC,"[…], time 14 day",32.6%
same,MCV,"[…], time 14 day",60 fL
same,Mono,"[…], time 14 day",1.8%
same,Neu,"[…], time 14 day",15.8%
same,PT,"[…], time 14 day",13.2 s
same,Plat,"[…], time 14 day",120.7 x10_4/uL
same,RBC,"[…], time 14 day",726.6 x10_4/ul
same,Ret,"[…], time 14 day",4.1%
same,WBC,"[…], time 14 day",100.3 x10_2/uL
same,APTT,"[…], time 28 day",17.5 s
same,Bas,"[…], time 28 day",0.6%
same,Eos,"[…], time 28 day",1.2%
same,Fbg,"[…], time 28 day",287.2 mg/dL
same,Hb,"[…], time 28 day",15.6 g/dL
same,Ht,"[…], time 28 day",46.6%
same,Lym,"[…], time 28 day",80.4%
same,MCH,"[…], time 28 day",18.8 pg
same,MCHC,"[…], time 28 day",33.5%
same,MCV,"[…], time 28 day",56.1 fL
same,Mono,"[…], time 28 day",2.4%
same,Neu,"[…], time 28 day",14.8%
same,PT,"[…], time 28 day",13.5 s
same,Plat,"[…], time 28 day",102.7 x10_4/uL
same,RBC,"[…], time 28 day",831.6 x10_4/ul
same,Ret,"[…], time 28 day",2.4%
same,WBC,"[…], time 28 day",116.4 x10_2/uL
same,KIDNEY_L,"[…], time 7 day",1.2 g
same,KIDNEY_R,"[…], time 7 day",1.2 g
same,KIDNEY_TOTAL,"[…], time 7 day",2.3 g
same,KIDNEY_L,"[…], time 14 day",1.2 g
same,KIDNEY_R,"[…], time 14 day",1.2 g
same,KIDNEY_TOTAL,"[…], time 14 day",2.4 g
same,KIDNEY_L,"[…], time 28 day",1.3 g
same,KIDNEY_R,"[…], time 28 day",1.3 g
same,KIDNEY_TOTAL,"[…], time 28 day",2.7 g
same,LIVER,"[…], time 7 day",12.8 g
same,LIVER,"[…], time 14 day",13.1 g
same,LIVER,"[…], time 28 day",15.8 g
same,A/G,"[…], time 7 day",0.9
same,ALP,"[…], time 7 day",1801.2 IU/L
same,ALT,"[…], time 7 day",43.8 IU/L
same,AST,"[…], time 7 day",68 IU/L
same,BUN,"[…], time 7 day",17.6 mg/dL
same,CRE,"[…], time 7 day",0.2 mg/dL
same,Ca,"[…], time 7 day",10.9 mg/dL
same,Cl,"[…], time 7 day",104.4 meq/L
same,DBIL,"[…], time 7 day",0.01 mg/dL
same,GLC,"[…], time 7 day",197.4 mg/dL
same,IP,"[…], time 7 day",7.9 mg/dL
same,K,"[…], time 7 day",4.1 meq/L
same,LDH,"[…], time 7 day",55.6 IU/L
same,Na,"[…], time 7 day",141.8 meq/L
same,PL,"[…], time 7 day",165.2 mg/dL
same,RALB,"[…], time 7 day",2.6 g/dL
same,TBIL,"[…], time 7 day",0.056 mg/dL
same,TC,"[…], time 7 day",79.6 mg/dL
same,TG,"[…], time 7 day",138.4 mg/dL
same,TP,"[…], time 7 day",5.5 g/dL
same,gamma-GTP,"[…], time 7 day",1.2 IU/L
same,A/G,"[…], time 14 day",0.8
same,ALP,"[…], time 14 day",1429.8 IU/L
same,ALT,"[…], time 14 day",37.2 IU/L
same,AST,"[…], time 14 day",67.4 IU/L
same,BUN,"[…], time 14 day",16.8 mg/dL
same,CRE,"[…], time 14 day",0.2 mg/dL
same,Ca,"[…], time 14 day",10.7 mg/dL
same,Cl,"[…], time 14 day",104.6 meq/L
same,DBIL,"[…], time 14 day",0.014 mg/dL
same,GLC,"[…], time 14 day",196.2 mg/dL
same,IP,"[…], time 14 day",7.1 mg/dL
same,K,"[…], time 14 day",3.8 meq/L
same,LDH,"[…], time 14 day",60.8 IU/L
same,Na,"[…], time 14 day",143.2 meq/L
same,PL,"[…], time 14 day",135 mg/dL
same,RALB,"[…], time 14 day",2.6 g/dL
same,TBIL,"[…], time 14 day",0.062 mg/dL
same,TC,"[…], time 14 day",61.6 mg/dL
same,TG,"[…], time 14 day",141.6 mg/dL
same,TP,"[…], time 14 day",5.7 g/dL
same,gamma-GTP,"[…], time 14 day",1.2 IU/L
same,A/G,"[…], time 28 day",0.8
same,ALP,"[…], time 28 day",1233.8 IU/L
same,ALT,"[…], time 28 day",38 IU/L
same,AST,"[…], time 28 day",63.8 IU/L
same,BUN,"[…], time 28 day",17.8 mg/dL
same,CRE,"[…], time 28 day",0.3 mg/dL
same,Ca,"[…], time 28 day",10.7 mg/dL
same,Cl,"[…], time 28 day",105.2 meq/L
same,DBIL,"[…], time 28 day",0.012 mg/dL
same,GLC,"[…], time 28 day",188.6 mg/dL
same,IP,"[…], time 28 day",6.7 mg/dL
same,K,"[…], time 28 day",3.9 meq/L
same,LDH,"[…], time 28 day",49.8 IU/L
same,Na,"[…], time 28 day",143 meq/L
same,PL,"[…], time 28 day",151.2 mg/dL
same,RALB,"[…], time 28 day",2.7 g/dL
same,TBIL,"[…], time 28 day",0.058 mg/dL
same,TC,"[…], time 28 day",68.8 mg/dL
same,TG,"[…], time 28 day",174.6 mg/dL
same,TP,"[…], time 28 day",6.2 g/dL
same,gamma-GTP,"[…], time 28 day",1 IU/L

# — ChEMBL document CHEMBL3885861, “Open TG-GATES”
